Test results published in ChEMBL document CHEMBL1139487, “Discovery of corticotropin releasing factor 2 receptor selective sauvagine analogues for treatment of skeletal muscle atrophy” (J Med Chem, 2005).

How the values were obtained:
[1] = molecular target: Corticotropin-releasing factor receptor 2 (Mus musculus, UniProt Q60748); test: In vitro effective concentration for mouse corticotropin releasing factor 2 receptor
[2] = molecular target: T1, Corticotropin-releasing factor receptor 1 (Mus musculus, UniProt P35347); test: In vitro effective concentration for mouse corticotropin releasing factor 1 receptor
T1 sequence (P35347 whole entry): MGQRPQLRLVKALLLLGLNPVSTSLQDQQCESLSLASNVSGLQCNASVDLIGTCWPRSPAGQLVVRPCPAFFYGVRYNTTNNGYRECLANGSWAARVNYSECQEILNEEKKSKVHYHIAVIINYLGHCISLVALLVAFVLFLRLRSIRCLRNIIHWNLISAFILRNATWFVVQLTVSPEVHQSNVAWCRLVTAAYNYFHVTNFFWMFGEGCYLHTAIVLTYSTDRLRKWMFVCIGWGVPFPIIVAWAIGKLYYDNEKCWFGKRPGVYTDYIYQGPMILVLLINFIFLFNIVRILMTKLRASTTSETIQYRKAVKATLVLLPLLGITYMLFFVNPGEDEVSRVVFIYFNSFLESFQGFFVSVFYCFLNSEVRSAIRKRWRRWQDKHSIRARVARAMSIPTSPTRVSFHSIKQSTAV

[3] = molecular target: T2, Corticotropin-releasing factor receptor 1 (Mus musculus) (UniProt P35347); test: In vitro agonistic activity against mouse corticotropin releasing factor 1 receptor; type: functional
T2 sequence (whole entry): T1 sequence (P35347 whole entry)

[4] = molecular target: Corticotropin-releasing factor receptor 2 (Mus musculus) (UniProt Q60748); test: In vitro agonistic activity against mouse corticotropin releasing factor 2 receptor; type: functional
Chain of Corticotropin-releasing factor receptor 2 (Mus musculus) (Q60748 whole entry): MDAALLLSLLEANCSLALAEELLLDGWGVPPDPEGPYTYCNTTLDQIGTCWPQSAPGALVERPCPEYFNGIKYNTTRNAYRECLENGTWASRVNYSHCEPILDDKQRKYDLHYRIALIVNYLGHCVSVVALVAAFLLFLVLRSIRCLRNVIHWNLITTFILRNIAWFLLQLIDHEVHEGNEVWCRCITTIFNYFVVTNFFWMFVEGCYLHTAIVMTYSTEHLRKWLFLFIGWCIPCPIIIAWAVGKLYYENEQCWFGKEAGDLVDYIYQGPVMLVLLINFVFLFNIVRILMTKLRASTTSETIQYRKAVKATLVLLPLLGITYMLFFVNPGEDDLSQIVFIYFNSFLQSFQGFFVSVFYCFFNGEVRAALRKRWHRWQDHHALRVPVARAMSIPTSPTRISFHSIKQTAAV

Chain of Corticotropin-releasing factor receptor 2 (Q60748 whole entry): as above

Molecule | EC50 [1] | EC50 [2] | Emax [3] | Emax [4]
CC[C@H](C)[C@H](NC(=O)[C@@H](NC(=O)[C@H](CC(=O)O)NC(=O)[C@H](CC(C)C)NC(=O)[C@H](CC(C)C)NC(=O)[C@H](CC(C)C)NC(=O)[C@H](CCCNC(=N)N)NC(=O)[C@H](CC(N)=O)NC(=O)[C@H](CC(N)=O)NC(=O)[C@H](C)NC(=O)[C@H](C)NC(=O)[C@H](CCC(N)=O)NC(=O)[C@H](CCC(N)=O)NC(=O)[C@H](CCCCN)NC(=O)[C@H](CCC(=O)O)NC(=O)[C@H](CCCCN)NC(=O)[C@H](CCC(=O)O)NC(=O)[C@H](CCC(N)=O)NC(=O)[C@H](CCCCN)NC(=O)[C@H](CCC(=O)O)NC(=O)[C@@H](NC(=O)[C@H](CCC(=O)O)NC(=O)[C@@H](NC(=O)[C@H](CCSC)NC(=O)[C@H](CCCCN)NC(=O)[C@H](CCCNC(=N)N)NC(=O)[C@H](CC(C)C)NC(=O)[C@H](CC(C)C)NC(=O)[C@@H](NC(=O)[C@H](Cc1ccccc1)NC(=O)[C@@H]1CCCN1C(=O)[C@H](CC(C)C)NC(=O)[C@H](CC(=O)O)NC(=O)[C@@H](NC(=O)[C@H](CO)NC(=O)[C@@H](NC(=O)[C@@H]1CCCN1C(=O)[C@@H]1CCCN1C(=O)CNC(=O)[C@@H]1CCC(=O)N1)[C@@H](C)CC)[C@@H](C)CC)C(C)C)[C@@H](C)CC)[C@@H](C)CC)[C@@H](C)O)C(=O)O | 5.9 nM | 85 nM |  | 
CC[C@H](C)[C@H](NC(=O)[C@@H](NC(=O)[C@H](CC(=O)O)NC(=O)[C@H](CC(C)C)NC(=O)[C@H](CC(C)C)NC(=O)[C@H](CC(C)C)NC(=O)[C@H](CCCNC(=N)N)NC(=O)[C@H](CC(N)=O)NC(=O)[C@H](CC(N)=O)NC(=O)[C@H](C)NC(=O)[C@H](C)NC(=O)[C@H](CCC(N)=O)NC(=O)[C@H](CCC(N)=O)NC(=O)[C@H](CCCCN)NC(=O)[C@H](CCC(=O)O)NC(=O)[C@H](CCCCN)NC(=O)[C@H](CCC(=O)O)NC(=O)[C@H](CCC(N)=O)NC(=O)[C@H](CCCCN)NC(=O)[C@H](CCC(=O)O)NC(=O)[C@@H](NC(=O)[C@H](CCC(=O)O)NC(=O)[C@@H](NC(=O)[C@H](CCSC)NC(=O)[C@H](CCCCN)NC(=O)[C@H](CCCNC(=N)N)NC(=O)[C@H](CC(C)C)NC(=O)[C@H](CC(C)C)NC(=O)[C@H](Cc1ccccc1)NC(=O)[C@H](Cc1ccc(O)cc1)NC(=O)[C@@H]1CCCN1C(=O)[C@H](CC(C)C)NC(=O)[C@H](CC(=O)O)NC(=O)[C@@H](NC(=O)[C@H](CO)NC(=O)[C@@H](NC(=O)[C@@H]1CCCN1C(=O)[C@@H]1CCCN1C(=O)CNC(=O)[C@@H]1CCC(=O)N1)[C@@H](C)CC)[C@@H](C)CC)[C@@H](C)CC)[C@@H](C)CC)[C@@H](C)O)C(=O)O | 4.1 nM | 63.6 nM |  | 
H-IVLSLDVPIGLLQILLEQARARAAREQATTNARILARV-OH [HUMAN UROCORTIN 2] | 4.3 nM | > 1000 nM |  | 
CC[C@H](C)[C@H](NC(=O)[C@@H](NC(=O)[C@H](CC(=O)O)NC(=O)[C@H](CC(C)C)NC(=O)[C@H](CC(C)C)NC(=O)[C@H](CC(C)C)NC(=O)[C@H](CCCNC(=N)N)NC(=O)[C@H](CC(N)=O)NC(=O)[C@H](CC(N)=O)NC(=O)[C@H](C)NC(=O)[C@H](C)NC(=O)[C@H](CCC(N)=O)NC(=O)[C@H](CCC(N)=O)NC(=O)[C@H](CCCCN)NC(=O)[C@H](CCC(=O)O)NC(=O)[C@H](CCCCN)NC(=O)[C@H](CCC(=O)O)NC(=O)[C@H](CCC(N)=O)NC(=O)[C@H](CCCCN)NC(=O)[C@H](CCC(=O)O)NC(=O)[C@@H](NC(=O)[C@H](CCC(=O)O)NC(=O)[C@@H](NC(=O)[C@H](CCSC)NC(=O)[C@H](CCCCN)NC(=O)[C@H](CCCNC(=N)N)NC(=O)[C@H](CC(C)C)NC(=O)[C@H](CC(C)C)NC(=O)[C@H](CCC(N)=O)NC(=O)[C@H](CCC(N)=O)NC(=O)[C@@H]1CCCN1C(=O)[C@H](CC(C)C)NC(=O)[C@H](CC(=O)O)NC(=O)[C@@H](NC(=O)[C@H](CO)NC(=O)[C@@H](NC(=O)[C@@H]1CCCN1C(=O)[C@@H]1CCCN1C(=O)CNC(=O)[C@@H]1CCC(=O)N1)[C@@H](C)CC)[C@@H](C)CC)[C@@H](C)CC)[C@@H](C)CC)[C@@H](C)O)C(=O)O | 29.9 nM | > 1000 nM |  | 
CC[C@H](C)[C@H](NC(=O)[C@@H](NC(=O)[C@H](CC(=O)O)NC(=O)[C@H](CC(C)C)NC(=O)[C@H](CC(C)C)NC(=O)[C@H](CC(C)C)NC(=O)[C@H](CCCNC(=N)N)NC(=O)[C@H](CC(N)=O)NC(=O)[C@H](CC(N)=O)NC(=O)[C@H](C)NC(=O)[C@H](C)NC(=O)[C@H](CCC(N)=O)NC(=O)[C@H](CCC(N)=O)NC(=O)[C@H](CCCCN)NC(=O)[C@H](CCC(=O)O)NC(=O)[C@H](CCCCN)NC(=O)[C@H](CCC(=O)O)NC(=O)[C@H](CCC(N)=O)NC(=O)[C@H](CCCCN)NC(=O)[C@H](CCC(=O)O)NC(=O)[C@@H](NC(=O)[C@H](CCC(=O)O)NC(=O)[C@@H](NC(=O)[C@H](CCSC)NC(=O)[C@H](CCCCN)NC(=O)[C@H](CCCNC(=N)N)NC(=O)[C@H](CC(C)C)NC(=O)[C@H](CC(C)C)NC(=O)[C@H](CCC(N)=O)NC(=O)[C@H](CC(C)C)NC(=O)[C@@H]1CCCN1C(=O)[C@H](CC(C)C)NC(=O)[C@H](CC(=O)O)NC(=O)[C@@H](NC(=O)[C@H](CO)NC(=O)[C@@H](NC(=O)[C@@H]1CCCN1C(=O)[C@@H]1CCCN1C(=O)CNC(=O)[C@@H]1CCC(=O)N1)[C@@H](C)CC)[C@@H](C)CC)[C@@H](C)CC)[C@@H](C)CC)[C@@H](C)O)C(=O)O | 6.5 nM | 423 nM |  | 
CC[C@H](C)[C@H](NC(=O)[C@@H](NC(=O)[C@H](CCC(=O)O)NC(=O)[C@H](CCSC)NC(=O)[C@H](CC(C)C)NC(=O)[C@H](CCCCN)NC(=O)[C@H](CCCN=C(N)N)NC(=O)[C@H](CC(N)=O)NC(=O)[C@H](CO)NC(=O)[C@H](Cc1c[nH]cn1)NC(=O)[C@H](C)NC(=O)[C@H](CCC(N)=O)NC(=O)[C@H](CCC(N)=O)NC(=O)[C@H](C)NC(=O)[C@H](CC(C)C)NC(=O)[C@H](CCC(N)=O)NC(=O)[C@H](CCC(=O)O)NC(=O)[C@H](C)NC(=O)[C@H](CCCN=C(N)N)NC(=O)[C@H](C)NC(=O)[C@H](CCSC)NC(=O)[C@H](CCC(=O)O)NC(=O)[C@H](CC(C)C)NC(=O)[C@@H](NC(=O)[C@H](CCC(=O)O)NC(=O)[C@H](CCCN=C(N)N)NC(=O)[C@H](CC(C)C)NC(=O)[C@H](CC(C)C)NC(=O)[C@H](Cc1c[nH]cn1)NC(=O)[C@H](Cc1ccccc1)NC(=O)[C@@H](NC(=O)[C@H](CC(C)C)NC(=O)[C@H](CC(=O)O)NC(=O)[C@H](CC(C)C)NC(=O)[C@H](CO)NC(=O)[C@@H](NC(=O)[C@@H]1CCCN1C(=O)[C@@H]1CCCN1C(=O)[C@H](CCC(=O)O)NC(=O)[C@H](CCC(=O)O)NC(=O)[C@@H](N)CO)[C@@H](C)CC)[C@@H](C)O)C(C)C)[C@@H](C)CC)C(=O)O |  |  | 87% | 82%
H-IVLSLDVPIGLLQILLEQARARAAREQATTNARILARV-OH |  |  | 8% | 96%
CC[C@H](C)[C@H](NC(=O)[C@@H](NC(=O)[C@H](CC(=O)O)NC(=O)[C@H](CC(C)C)NC(=O)[C@H](CC(C)C)NC(=O)[C@H](CC(C)C)NC(=O)[C@H](CCCN=C(N)N)NC(=O)[C@H](CC(N)=O)NC(=O)[C@H](CC(N)=O)NC(=O)[C@H](C)NC(=O)[C@H](C)NC(=O)[C@H](CCC(N)=O)NC(=O)[C@H](CCC(N)=O)NC(=O)[C@H](CCCCN)NC(=O)[C@H](CCC(=O)O)NC(=O)[C@H](CCCCN)NC(=O)[C@H](CCC(=O)O)NC(=O)[C@H](CCC(N)=O)NC(=O)[C@H](CCCCN)NC(=O)[C@H](CCC(=O)O)NC(=O)[C@@H](NC(=O)[C@H](CCC(=O)O)NC(=O)[C@@H](NC(=O)[C@H](CCSC)NC(=O)[C@H](CCCCN)NC(=O)[C@H](CCCN=C(N)N)NC(=O)[C@H](CC(C)C)NC(=O)[C@H](CC(C)C)NC(=O)[C@H](CCC(=O)O)NC(=O)[C@H](CC(C)C)NC(=O)[C@H](CO)NC(=O)[C@H](CC(C)C)NC(=O)[C@H](CC(=O)O)NC(=O)[C@@H](NC(=O)[C@H](CO)NC(=O)[C@@H](NC(=O)[C@@H]1CCCN1C(=O)[C@@H]1CCCN1C(=O)CNC(=O)[C@@H]1CCC(=O)N1)[C@@H](C)CC)[C@@H](C)CC)[C@@H](C)CC)[C@@H](C)CC)[C@@H](C)O)C(=O)O [SAUVAGINE] |  |  | 99% | 95%
CC[C@H](C)[C@H](NC(=O)[C@@H](NC(=O)[C@H](CCC(=O)O)NC(=O)[C@H](CCSC)NC(=O)[C@H](CC(C)C)NC(=O)[C@H](CCCCN)NC(=O)[C@H](CCCNC(=N)N)NC(=O)[C@H](CC(N)=O)NC(=O)[C@H](CO)NC(=O)[C@H](Cc1c[nH]cn1)NC(=O)[C@H](C)NC(=O)[C@H](CCC(N)=O)NC(=O)[C@H](CCC(N)=O)NC(=O)[C@H](C)NC(=O)[C@H](CC(C)C)NC(=O)[C@H](CCC(N)=O)NC(=O)[C@H](CCC(=O)O)NC(=O)[C@H](C)NC(=O)[C@H](CCCNC(=N)N)NC(=O)[C@H](C)NC(=O)[C@H](CCSC)NC(=O)[C@H](CCC(=O)O)NC(=O)[C@H](CC(C)C)NC(=O)[C@@H](NC(=O)[C@H](CCC(=O)O)NC(=O)[C@H](CCCNC(=N)N)NC(=O)[C@H](CC(C)C)NC(=O)[C@H](CC(C)C)NC(=O)[C@H](Cc1c[nH]cn1)NC(=O)[C@H](Cc1ccccc1)NC(=O)[C@@H](NC(=O)[C@H](CC(C)C)NC(=O)[C@H](CC(=O)O)NC(=O)[C@H](CC(C)C)NC(=O)[C@H](CO)NC(=O)[C@@H](NC(=O)[C@@H]1CCCN1C(=O)[C@@H]1CCCN1C(=O)[C@H](CCC(=O)O)NC(=O)[C@H](CCC(=O)O)NC(=O)[C@@H](N)CO)[C@@H](C)CC)[C@@H](C)O)C(C)C)[C@@H](C)CC)C(N)=O [HUMAN CORTICOTROPIN RELEASING FACTOR] |  | 20 nM |  | 
